Key:
[1] = system: human promyelocytic leukemia HL-60; experiment: MTT method: cell growth suppressing / apoptosis-inducing activity; type: cell-based; settings: for apoptosis-inducing activity of the non-heated solution: HL-60, 48 hours, MTT method; for apoptosis-inducing activity / cancer cell growth suppressing activity: HL-60, MTT method of Example 1, 48 hours
Experimental: Heated and non-heated substances of each of them were sterilized by a membrane filter of 0.22 μm to prepare samples for the apoptosis-inducing activity. Those samples were diluted with aseptic distilled water to an extent of 2-, 4-, 8-, 16- and 32-fold, their activity for suppressing the cell growth to the human promyelocytic leukemia HL-60 was measured as follows and their intensity or the apoptosis-inducing activity was compared.
Thus, 10 μl of each of the diluted solutions or 10 μl of aseptic distilled water were placed in a well of a 96-well microtiter plate. Then 90 μl of an RPMI 1640 medium (manufactured by Nissui) containing 10% of fetal bovine serum (manufactured by Gibco) which contained 5000 HL-60 cells (ATCC CCL240) were added thereto and an incubation was carried out at 37° C. for 48 hours in the presence of 5% carbon dioxide gas. After observing the shape of the cells under an optical microscope, 10 μl of a phosphate-buffered aqueous saline solution containing 5 mg/ml of 3-(4,5-dimethylthiazol-2-yl)-2,5-diphenyltetrazolium bromide (MTT; manufactured by Sigma), an incubation was continued for four hours more and state of growth of cells and formation of formazan produced in the cells were observed under a microscope. Further, 100 μl of 2-propanol containing 0.04N HCl were added thereto followed by well stirring and the absorbance at 590 nm was measured and used as a degree of growth of cells (an MTT method).
The solvent of the fraction was appropriately evaporated to substitute with a 50% aqueous solution of ethanol and the activity for suppressing the growth of cancer cells was measured by an MTT method mentioned in Example 1 except that the sample was diluted to a two-fold series using a 50% aqueous solution of ethanol and 2 μl of each of the diluted solutions or 2 μl of a 50% aqueous solution of ethanol were placed in a well of a flat-bottom 96-well microplate. Time for incubation was 16 hours.

HL-60 cells [2] = experiment: analysis of fragmentation of DNA; type: cell-based, human
Experimental: (2) HL-60 cells which were incubated on an RPMI 1640 medium containing 10% of fetal bovine serum processed at 56° C. for 30 minutes were suspended in an RPMI 1640 medium to make 2.5×10^5 cells/5 ml.
To 5 ml the suspension were added 10 μl of 12.5 mM, 25 mM, 50 mM or 100 mM of a 70% ethanolic solution of 4,5-dihydroxy-2-pentenal, 0.05 mM, 0.5 mM, 5 mM or 50 mM of a 70% ethanolic solution of 4-hydroxy-2-cyclopenten-1-one, 5 mM, 10 mM or 20 mM of a 70% ethanolic solution of 4-(9-adeninyl)-2-cyclopenten-1-one prepared in Example 4-(4), 2.5 mM, 5 mM, 15 mM or 25 mM of a 70% ethanolic solution of 4-(9-guaninyl)-2-cyclopenten-1-one prepared in Example 4-(5) 75 mM, 150 mM or 300 mM of a 70% ethanolic solution of 1,5-epoxy-1-hydroxy-3-penten-2-one prepared in Example 5-(2) or 5 mM, 25 mM or 50 mM of a 70% ethanolic solution of 2-(trans-3,4-dihydroxy-1-butenyl)-4-(trans-2-formylvinyl)-1,3-dioxolane prepared in Example 6-(2) followed by incubating at 37° C. in the presence of 5% of carbon dioxide gas for 24 hours and 48 hours and the resulting cells were subjected to a measurement of apoptosis cells using FACScan by a method mentioned in pages 129-130 of “Experimental Protocol Series—Apoptosis Experiment Protocol” which was an extra issue of “Saibo Kogaku (Cell Technology)” (published by Shujunsha in 1994) and also to a measurement of analysis of fragmentation of DNA by a method mentioned in page 61-63 of “Biomanual UP Series—New Experimental Methods for Apoptosis” (published by Yodosha in 1995).

HL-60 cells [3] = experiment: Trypan Blue staining, survival rate; type: cell-based; settings: Homo sapiens, HL-60, 24 hours, concentration where survival rate becomes 50%, read-out: Survival Rate50
Experimental: (3) The cells which were incubated for 24 hours by the same manner as in Example 9-(2) were stained with 0.4% Trypan Blue and observed under an optical microscope, numbers of viable cells which were not stained and of dead cells which were stained in blue were measured, concentration (survival rate50) of each of the samples where survival rate becomes 50% was determined and the result is given in Table 1.

HL-60 cells [4] = experiment: measurement of apoptosis cells using FACScan; type: cell-based, human; settings: HL-60, 24 hours and 48 hours
Experimental: (2) HL-60 cells which were incubated on an RPMI 1640 medium containing 10% of fetal bovine serum processed at 56° C. for 30 minutes were suspended in an RPMI 1640 medium to make 2.5×10^5 cells/5 ml. […]

HL-60 cells [5] = experiment: observation of apoptosis under an optical microscope; type: cell-based, human; settings: HL-60, 24 hours
Experimental: (1) HL-60 cells (ATCC CCL-240) incubated at 37° C. in an RPMI 1640 medium (manufactured by BioWhittaker) containing 10% of fetal bovine serum (manufactured by JRH) treated at 56° C. for 30 minutes were suspended in an RPMI 1640 medium to make the concentration 2.5×10^5 cells/5 ml.
To 5 ml of this suspension were added 10 μl of 12.5 mM, 25 mM, 50 mM or 100 mM of a 70% ethanolic solution of 4,5-dihydroxy-2-pentenal prepared in Example 6-(1), 0.05 mM, 0.5 mM, 5 mM or 50 mM of a 70% ethanolic solution of 4-hydroxy-2-cyclopenten-1-[…] prepared in Example 6-(1), 5 mM, 10 mM or 20 mM of a 70% ethanolic solution of 4-(9-adeninyl)-2-cyclopenten-1-one prepared in Example 4-(4), 2.5 mM, 5 mM, 15 mM or 25 mM of a 70% ethanolic solution of 4-(9-guaninyl)-2-cyclopenten-1-one prepared in Example 4-(5), 75 mM, 150 mM or 300 mM of a 70% ethanolic solution of 1,5-epoxy-1-hydroxy-3-penten-2-one prepared in Example 5-(2) or 5 mM, 25 mM or 50 mM of a 70% ethanolic solution of 2-(trans-3,4-dihydroxy-1-butenyl)-4-(trans-2-formylvinyl)-1,3-dioxolane prepared in Example 6-(2) followed by incubating at 37° C. in the presence of 5% carbon dioxide gas for 24 hours.
Incidentally, such phenomena were not noted in the incubated cells to which […] of 70% ethanolic solution were added used as a control.

O=C[C@H](O)[C@H](O)[C@H](O)CO [non-heated aqueous solution of D-ribose, D-ribose]
apoptosis-inducing activity of the non-heated solution [1]: no apoptosis-inducing activity

O=CC[C@H](O)[C@H](O)CO [2-deoxy-D-ribose]
apoptosis-inducing activity of the non-heated solution [1]: no apoptosis-inducing activity

O=C[C@H](O)[C@@H](O)[C@H](O)CO [D(+)-xylose]
apoptosis-inducing activity of the non-heated solution [1]: no apoptosis-inducing activity

NC(CCC(=O)NC(CSC1CC(=O)CC1O)C(=O)NCC(=O)O)C(=O)O (single isomer, unassigned) [peak 1]
apoptosis-inducing activity / cancer cell growth suppressing activity [1]: noted

Nc1ncnc2c1ncn2C1C=CC(=O)C1 (centres unmarked) [4-(9-adeninyl)-2-cyclopenten-1-one]
fragmentation of DNA (HL-60 cells [2]; HL-60, 10 μM final concentration): confirmed
fragmentation of DNA (HL-60 cells [2]; HL-60, 30 μM final concentration): confirmed
IC50 (HL-60 cells [3]): 22.4 µM

O=C1C=CCOC1O (centres unmarked) [1,5-epoxy-1-hydroxy-3-penten-2-one]
IC50 (HL-60 cells [3]): 438 µM
final concentration at which apoptosis cells were confirmed (HL-60 cells [4]): ≥ 600 µM
final concentration at which aggregation of nuclei, reduction in size of the cells and formation of apoptic body were confirmed (HL-60 cells [5]): ≥ 625 µM

NC(CCC(=O)NC(CSC1CC(=O)CC1O)C(=O)NCC(=O)O)C(=O)O (single isomer, unassigned) [peak 3]
apoptosis-inducing activity / cancer cell growth suppressing activity [1]: noted

O=C[C@H](O)[C@@H](O)[C@@H](O)CO [L(+)-arabinose]
apoptosis-inducing activity of the non-heated solution [1]: no apoptosis-inducing activity

O=C[C@@H](O)[C@H](O)[C@H](O)CO [D-(−)-arabinose]
apoptosis-inducing activity of the non-heated solution [1]: no apoptosis-inducing activity

O=C1C=CC(O)C1O (centres unmarked) [4,5-dihydroxy-2-cyclopenten-1-one]
cancer cell growth suppressing activity and apoptic body formation ([1]; HL-60, MTT method of Example 4-(2), sample in 50% ethanol, 16 hours): confirmed

— patent US6809091B1, “Substances capable of inducing apoptosis” (Takara Bio Inc., priority 1998, dated 2004)
